From patent EP2289904A1, “Inhibitors of microbial infections” (Universita' degli Studi di Milano, priority 2009, dated 2011)

Tests used:
HIV-1 BaL [1] = assay: trans-infection of CD4+ T lymphocytes by B-THP-1/DC-SIGN cells exposed to virus in continued presence of inhibitor, p24 ELISA
[2] = target: T1, dendritic cell receptor DC-SIGN (Homo sapiens, UniProt Q9NNX6); settings: Reina et al. 2007; cited from earlier work
T1 sequence (Q9NNX6 1-404): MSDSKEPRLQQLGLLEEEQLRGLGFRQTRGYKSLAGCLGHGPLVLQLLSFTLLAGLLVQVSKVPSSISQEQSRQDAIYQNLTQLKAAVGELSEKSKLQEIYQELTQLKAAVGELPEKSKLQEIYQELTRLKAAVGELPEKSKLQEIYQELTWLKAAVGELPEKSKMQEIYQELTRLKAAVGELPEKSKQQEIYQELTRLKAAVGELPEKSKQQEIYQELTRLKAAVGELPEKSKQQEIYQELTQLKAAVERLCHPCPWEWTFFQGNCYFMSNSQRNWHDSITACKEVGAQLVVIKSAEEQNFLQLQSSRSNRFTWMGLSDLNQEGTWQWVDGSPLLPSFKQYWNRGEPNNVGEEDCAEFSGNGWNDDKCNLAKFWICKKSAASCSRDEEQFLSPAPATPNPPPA

Ebola virus = Ebola virus infection model; Reina et al. 2007; cited from earlier work
HIV-1 BaL [3] = assay: trans-infection assay, B-THP-1/DC-SIGN cells incubated with inhibitor and washed before adding the virus; settings: 5 mM, cells washed with buffer before adding virus (BaL); Figure 3

With `OC[C@H]1OC(O)[C@@H](O)[C@@H](O)[C@@H]1O` (some centres unmarked) [Man4] the activity at 100 µM (HIV-1 BaL [1]; Human immunodeficiency virus 1, BAL, CD4+ T, read-out: infection level) was no less than 30%.
In the case of `COC(=O)[C@H]1C[C@H](OCCN=[N+]=[N-])[C@@H](O[C@H]2O[C@H](CO)[C@@H](O)[C@H](O)[C@@H]2O)C[C@@H]1C(=O)OC` [compound 1], the “binding to DC-SIGN” value [2] is listed as “binds” and the anti-infective action (Ebola virus) is listed as “moderate anti-infective action”.
For `COC(=O)[C@H]1C[C@H](OC[C@H]2O[C@H](OCCN=[N+]=[N-])[C@@H](O)[C@@H](O)[C@@H]2O)[C@@H](O[C@H]2O[C@H](CO)[C@@H](O)[C@H](O)[C@@H]2O)C[C@@H]1C(=O)OC` [compound 2b, α(1,2)α(1,6)pseudomannotriose], the “antiinfective activity in the trans-infection assay” value (HIV-1 BaL [3]) was “no antiinfective activity” and the “concentration needed to reach a similar inhibition level, compared with 12” value (HIV-1 BaL [1]; HIV-1 BaL, Figure 2) was “much higher concentration”.
